Results published in ChEMBL document CHEMBL5223091, “Targeting the Mitotic Kinesin KIF18A in Chromosomally Unstable Cancers: Hit Optimization Toward an In Vivo Chemical Probe” (J Med Chem, 2022).
Values after ≈ are worked out from the molar mass of the structure shown. Active and inactive are the calls of the source. The calls are words filed in the database; no cut-off is given here.

Key:
[1] = Cmax in CD-1 mouse xenografted with human OVCAR-3 cells at 100 mg/kg, ip by LC-MS/MS analysis; assay type: ADME, organism-based; set-up: dose 100 mg/kg, route ip; conditions: in vivo
[2] = system: OVCAR-3; test: Antimitotic activity in human OVCAR-3 cells xenografted in CD-1 mouse assessed as increase in phospho-histone H3 positive cells in tumor at 100 mg/kg, po measured after 8 hrs; assay type: functional, organism-based
[3] = Clearance in CD-1 mouse at 1 mg/kg, iv and 10 mg/kg, po; assay type: ADME, organism-based; conditions: in vivo
[4] = target: T1, Kinesin-like protein KIF11 (Homo sapiens, UniProt P52732); test: Inhibition of recombinant GST-tagged human Eg5 assessed as inhibition of microtubule-stimulated ATPase activity preincubated for 30 mins followed by ATP addition and further incubated for 15 mins by ADP-Glo reagent based assay
T1 sequence (P52732 whole entry): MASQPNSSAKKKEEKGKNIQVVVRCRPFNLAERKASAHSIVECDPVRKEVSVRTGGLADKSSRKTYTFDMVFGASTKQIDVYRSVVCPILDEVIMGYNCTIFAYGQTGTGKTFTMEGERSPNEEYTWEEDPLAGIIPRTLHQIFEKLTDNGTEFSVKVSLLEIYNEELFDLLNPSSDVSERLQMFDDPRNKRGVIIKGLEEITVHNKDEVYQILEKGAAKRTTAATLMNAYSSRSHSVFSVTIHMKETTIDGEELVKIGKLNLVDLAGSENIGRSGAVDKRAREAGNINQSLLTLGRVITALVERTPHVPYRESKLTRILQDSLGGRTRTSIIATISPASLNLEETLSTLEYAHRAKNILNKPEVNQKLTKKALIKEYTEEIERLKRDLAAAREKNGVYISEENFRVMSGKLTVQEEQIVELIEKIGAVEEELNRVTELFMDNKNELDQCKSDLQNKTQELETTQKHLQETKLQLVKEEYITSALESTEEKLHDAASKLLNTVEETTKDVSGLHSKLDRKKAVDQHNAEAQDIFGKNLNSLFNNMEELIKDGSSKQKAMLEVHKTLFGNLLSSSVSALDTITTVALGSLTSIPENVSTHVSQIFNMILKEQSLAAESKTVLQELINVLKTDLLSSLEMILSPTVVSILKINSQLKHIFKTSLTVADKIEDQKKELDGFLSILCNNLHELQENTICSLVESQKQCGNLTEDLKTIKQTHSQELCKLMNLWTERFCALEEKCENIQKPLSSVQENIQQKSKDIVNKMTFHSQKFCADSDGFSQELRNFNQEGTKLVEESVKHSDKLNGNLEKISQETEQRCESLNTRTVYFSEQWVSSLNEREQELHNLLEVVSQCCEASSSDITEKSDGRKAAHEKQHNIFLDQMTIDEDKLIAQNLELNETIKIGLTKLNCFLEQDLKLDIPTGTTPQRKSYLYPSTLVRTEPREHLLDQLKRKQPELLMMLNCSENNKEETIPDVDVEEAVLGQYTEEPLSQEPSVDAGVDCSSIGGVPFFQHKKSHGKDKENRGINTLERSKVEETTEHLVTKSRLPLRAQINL

[5] = system: OVCAR-3; test: Induction of mitotic arrest in human OVCAR-3 cells assessed as p-histone H3 incubated for 24 hrs by mitotic - imaging assay; assay type: functional, cell-based; conditions: OVCAR-3, 24 h
[6] = system: OVCAR-3; test: Antimitotic activity in human OVCAR-3 cells xenografted in CD-1 mouse assessed as time prolongation of mitotic arrest per day at 100 mg/kg, po; assay type: functional
[7] = AUC (0 to 24 hrs) in CD-1 mouse xenografted with human OVCAR-3 cells at 100 mg/kg, ip by LC-MS/MS analysis; assay type: ADME, organism-based; set-up: dose 100 mg/kg, route ip; conditions: in vivo
[8] = system: MDA-MB-157; test: Induction of mitotic arrest in TP53 mutant human MDA-MB-157 cells assessed as multipolar spindle arrays by measuring pericentriolar material incubated for 24 hrs by mitotic index assay; assay type: functional, cell-based; conditions: MDA-MB-157, 24 h
[9] = target: T2, Kinesin-like protein KIF18A (Homo sapiens, UniProt Q8NI77); test: Inhibition of recombinant His-tagged human KIF18A (1 to 467 residues) expressed in Trichoplusia ni insect cells assessed as inhibition of microtubule-stimulated ATPase activity preincubated for 30 mins followed by ATP addition and further incubated for 15 mins by ADP-Glo reagent based assay; set-up: species or system Insect cell
T2 sequence (Q8NI77 whole entry): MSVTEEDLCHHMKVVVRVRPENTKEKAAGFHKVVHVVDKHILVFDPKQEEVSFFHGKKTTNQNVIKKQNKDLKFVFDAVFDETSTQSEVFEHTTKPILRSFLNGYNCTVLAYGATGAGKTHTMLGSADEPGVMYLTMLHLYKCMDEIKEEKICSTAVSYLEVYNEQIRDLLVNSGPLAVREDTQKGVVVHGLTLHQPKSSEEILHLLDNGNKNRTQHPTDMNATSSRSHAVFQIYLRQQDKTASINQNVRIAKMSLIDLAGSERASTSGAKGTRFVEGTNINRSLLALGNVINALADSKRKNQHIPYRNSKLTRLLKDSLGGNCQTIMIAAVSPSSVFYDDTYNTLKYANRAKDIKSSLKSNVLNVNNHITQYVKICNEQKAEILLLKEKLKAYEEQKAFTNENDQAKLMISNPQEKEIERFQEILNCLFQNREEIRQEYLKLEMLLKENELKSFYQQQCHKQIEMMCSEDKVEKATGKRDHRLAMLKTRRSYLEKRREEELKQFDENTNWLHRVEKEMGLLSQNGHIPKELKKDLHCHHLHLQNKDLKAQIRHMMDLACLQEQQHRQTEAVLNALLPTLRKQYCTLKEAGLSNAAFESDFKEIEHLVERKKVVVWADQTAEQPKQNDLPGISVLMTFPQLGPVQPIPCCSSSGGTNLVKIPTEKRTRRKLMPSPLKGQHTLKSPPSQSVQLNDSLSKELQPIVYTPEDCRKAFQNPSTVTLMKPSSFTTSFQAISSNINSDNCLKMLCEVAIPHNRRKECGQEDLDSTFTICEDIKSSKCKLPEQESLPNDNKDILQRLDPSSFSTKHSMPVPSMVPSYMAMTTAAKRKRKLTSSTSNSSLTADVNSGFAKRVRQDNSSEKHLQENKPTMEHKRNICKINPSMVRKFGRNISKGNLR

[10] = system: OVCAR-3; test: Antiproliferative activity against human OVCAR-3 cells by nuclear count assay; assay type: functional, cell-based
[11] = Kinetic solubility of compound at pH 2; assay type: physicochemical; conditions: buffer, read-out: Kinetic_solubility

Cmax [1]: 22.6 µM
CL [3]: 23.3 mL/min/kg
IC50 [4]: > 100000 nM
EC50 [5]: 32 nM
AUC(0-t) [7]: 116 µM·h
IC50 [8]: 32 nM
IC50 [9]: 96 nM
EC50 [10]: 32 nM
solubility kinetic [11]: 500 µM (≈ 269 µg/mL)
SMILES: CC(C)(C)NS(=O)(=O)c1cccc(NC(=O)c2ncc(NS(C)(=O)=O)nc2N2CCC3(CC2)CC3)n1
Activity [2]: Active
Time [6]: >=12 hr
